Experimental data published in article PMC12627232 (MedComm, 2025).

How the values were obtained:
HDAC1 = biological target: T1, HDAC1 (Homo sapiens, UniProt Q13547); assay: HDACs enzymatic assay HDAC1; type: biochemical
T1 construct: purchased BPS BIOSCIENCE INC 50051
Experimental: (§1) HDACs enzymatic assays were conducted according to our previous work. […] Substrates (Boc‐Lys(acetyl)‐AMC for HeLa nuclear extract, Ac‐Leu‐Gly‐Lys (Tfa)‐AMC for HDAC4, HDAC5, HDAC6, HDAC7, HDAC9, HDAC10, and HDAC11, Boc‐Lys(triflouroacetyl)‐AMC for HDAC8 and Ac‐Leu‐Gly‐Lys(acetyl)‐AMC for HDAC1, HDAC2, HDAC3) were added to the mixture. The blank group was set to no enzyme or drug but contains substrates and the control group was set to no drug but contains substrates and enzymes to each 96‐well plate. After 30 min of incubation at 37°C, the mixture was terminated with 1 mg/mL trypsin and 3 µM TSA. After another 30 min, the fluorescence intensity was measured using a Varioskan plate reader at 360/460 nm. […] The inhibition curves and IC50 values were simulated and calculated using the log(inhibitor) versus response (three parameters) mode in GraphPad Prism software.

HDAC3/NCOR1 complex = HDAC3/NCOR1 complex (Homo sapiens, UniProt O15379); assay: HDACs enzymatic assay HDAC3; type: biochemical; details: Class I; mean ± SD of three
Experimental: as §1

HDAC4 = biological target: T2, HDAC4 (Homo sapiens, UniProt P56524); assay: HDACs enzymatic assay HDAC4; type: biochemical; details: Class IIa
T2 construct: purchased BPS BIOSCIENCE Inc 50004
T2 sequence (P56524 whole entry): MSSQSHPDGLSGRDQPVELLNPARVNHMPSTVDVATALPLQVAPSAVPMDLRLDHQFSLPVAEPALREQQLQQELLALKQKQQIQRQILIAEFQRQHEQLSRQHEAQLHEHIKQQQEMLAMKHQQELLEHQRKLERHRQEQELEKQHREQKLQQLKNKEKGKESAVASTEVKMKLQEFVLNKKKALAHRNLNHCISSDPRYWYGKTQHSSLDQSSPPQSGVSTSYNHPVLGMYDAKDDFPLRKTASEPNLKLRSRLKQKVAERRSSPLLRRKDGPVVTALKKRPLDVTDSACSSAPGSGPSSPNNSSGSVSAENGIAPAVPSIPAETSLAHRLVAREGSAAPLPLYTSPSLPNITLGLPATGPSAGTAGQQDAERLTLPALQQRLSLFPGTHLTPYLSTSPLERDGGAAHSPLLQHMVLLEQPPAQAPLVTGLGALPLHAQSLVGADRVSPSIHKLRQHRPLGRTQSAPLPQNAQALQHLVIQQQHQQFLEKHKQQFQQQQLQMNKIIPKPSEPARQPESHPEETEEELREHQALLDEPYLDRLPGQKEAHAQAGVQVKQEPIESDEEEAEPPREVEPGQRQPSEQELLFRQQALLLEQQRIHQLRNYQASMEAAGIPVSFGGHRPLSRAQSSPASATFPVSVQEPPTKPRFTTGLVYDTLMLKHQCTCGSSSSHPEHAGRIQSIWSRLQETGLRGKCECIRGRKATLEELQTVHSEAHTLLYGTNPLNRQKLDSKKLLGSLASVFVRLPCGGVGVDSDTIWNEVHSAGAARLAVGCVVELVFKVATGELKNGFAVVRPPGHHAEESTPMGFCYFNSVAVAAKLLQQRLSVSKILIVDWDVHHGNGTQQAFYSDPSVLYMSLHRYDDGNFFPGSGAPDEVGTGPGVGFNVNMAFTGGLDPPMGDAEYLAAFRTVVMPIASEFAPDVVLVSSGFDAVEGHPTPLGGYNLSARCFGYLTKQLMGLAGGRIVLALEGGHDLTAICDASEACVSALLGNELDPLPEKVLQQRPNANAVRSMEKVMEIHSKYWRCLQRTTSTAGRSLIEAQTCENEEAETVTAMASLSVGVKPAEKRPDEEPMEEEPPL
Experimental: as §1

HDAC5 = biological target: T3, HDAC5 (Homo sapiens, UniProt Q9UQL6); assay: HDACs enzymatic assay HDAC5; type: biochemical; details: Class IIa
T3 construct: purchased BPS BIOSCIENCE Inc 50005
T3 sequence (Q9UQL6 whole entry): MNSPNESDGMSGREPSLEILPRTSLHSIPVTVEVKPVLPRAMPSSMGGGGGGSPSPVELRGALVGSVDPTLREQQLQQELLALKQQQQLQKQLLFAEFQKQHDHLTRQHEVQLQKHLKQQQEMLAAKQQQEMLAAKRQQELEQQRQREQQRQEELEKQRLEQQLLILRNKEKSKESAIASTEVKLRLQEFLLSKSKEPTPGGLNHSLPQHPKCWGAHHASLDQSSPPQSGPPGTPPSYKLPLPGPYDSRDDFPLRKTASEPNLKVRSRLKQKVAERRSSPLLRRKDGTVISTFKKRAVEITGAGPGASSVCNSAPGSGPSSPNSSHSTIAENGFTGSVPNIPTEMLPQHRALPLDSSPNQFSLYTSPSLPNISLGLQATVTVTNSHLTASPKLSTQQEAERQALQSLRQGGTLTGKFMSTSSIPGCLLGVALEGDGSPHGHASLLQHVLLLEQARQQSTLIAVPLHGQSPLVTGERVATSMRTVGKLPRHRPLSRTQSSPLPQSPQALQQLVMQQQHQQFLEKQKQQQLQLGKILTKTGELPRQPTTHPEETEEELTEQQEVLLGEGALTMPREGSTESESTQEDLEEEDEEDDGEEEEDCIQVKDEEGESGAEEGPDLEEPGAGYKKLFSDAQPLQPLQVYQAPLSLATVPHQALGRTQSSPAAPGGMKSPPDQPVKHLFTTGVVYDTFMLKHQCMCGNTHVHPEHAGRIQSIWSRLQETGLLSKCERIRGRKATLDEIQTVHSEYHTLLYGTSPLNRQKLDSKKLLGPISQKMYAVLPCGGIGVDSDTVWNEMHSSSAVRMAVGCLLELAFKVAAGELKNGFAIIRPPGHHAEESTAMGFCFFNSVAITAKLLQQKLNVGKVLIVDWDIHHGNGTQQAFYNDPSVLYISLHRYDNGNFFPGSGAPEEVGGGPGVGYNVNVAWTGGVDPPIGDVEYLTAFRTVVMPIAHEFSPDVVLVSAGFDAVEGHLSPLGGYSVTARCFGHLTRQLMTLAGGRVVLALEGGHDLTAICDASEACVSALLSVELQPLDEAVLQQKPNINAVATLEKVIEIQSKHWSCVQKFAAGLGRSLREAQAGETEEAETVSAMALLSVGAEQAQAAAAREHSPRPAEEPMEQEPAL
Experimental: as §1

HDAC9 = biological target: T4, HDAC9 (Homo sapiens, UniProt Q9UKV0); assay: HDACs enzymatic assay HDAC9; type: biochemical; details: Class IIa
T4 construct: purchased BPS BIOSCIENCE Inc 50009
T4 sequence (Q9UKV0 whole entry): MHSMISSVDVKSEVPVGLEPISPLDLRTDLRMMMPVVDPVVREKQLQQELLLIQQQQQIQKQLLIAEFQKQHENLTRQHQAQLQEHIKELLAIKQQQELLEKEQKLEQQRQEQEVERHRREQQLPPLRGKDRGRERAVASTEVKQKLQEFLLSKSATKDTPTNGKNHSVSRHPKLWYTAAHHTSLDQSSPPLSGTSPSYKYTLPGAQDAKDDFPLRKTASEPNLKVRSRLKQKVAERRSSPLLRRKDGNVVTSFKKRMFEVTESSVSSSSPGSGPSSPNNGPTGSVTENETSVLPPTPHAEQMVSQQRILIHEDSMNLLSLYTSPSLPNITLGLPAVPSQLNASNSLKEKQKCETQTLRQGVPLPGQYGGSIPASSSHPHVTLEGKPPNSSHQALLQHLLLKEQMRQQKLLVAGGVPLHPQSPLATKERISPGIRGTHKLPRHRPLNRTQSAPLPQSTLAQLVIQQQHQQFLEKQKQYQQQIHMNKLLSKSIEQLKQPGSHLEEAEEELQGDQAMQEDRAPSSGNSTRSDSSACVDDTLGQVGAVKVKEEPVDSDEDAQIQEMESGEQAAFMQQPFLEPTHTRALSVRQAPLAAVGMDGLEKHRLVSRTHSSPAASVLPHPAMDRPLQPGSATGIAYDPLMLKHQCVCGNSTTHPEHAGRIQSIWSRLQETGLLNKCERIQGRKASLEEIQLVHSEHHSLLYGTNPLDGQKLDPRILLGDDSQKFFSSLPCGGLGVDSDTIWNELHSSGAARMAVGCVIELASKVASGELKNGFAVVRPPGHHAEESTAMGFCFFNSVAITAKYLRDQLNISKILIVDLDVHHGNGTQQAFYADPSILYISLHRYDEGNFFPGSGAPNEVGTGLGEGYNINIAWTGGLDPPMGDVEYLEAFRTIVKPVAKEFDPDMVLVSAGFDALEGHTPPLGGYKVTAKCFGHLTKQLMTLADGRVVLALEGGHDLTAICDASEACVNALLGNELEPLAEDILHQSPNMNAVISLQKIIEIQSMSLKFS
Experimental: as §1

HDAC6 = biological target: T5, HDAC6 (Homo sapiens, UniProt Q9UBN7); assay: HDACs enzymatic assay HDAC6; type: biochemical; details: Class IIb
T5 construct: purchased BPS BIOSCIENCE Inc 50006
Experimental: as §1

HDAC10 = biological target: T6, HDAC10 (Homo sapiens, UniProt Q969S8); assay: HDACs enzymatic assay HDAC10; type: biochemical; details: Class IIb
T6 construct: purchased BPS BIOSCIENCE Inc 50010
T6 sequence (Q969S8 whole entry): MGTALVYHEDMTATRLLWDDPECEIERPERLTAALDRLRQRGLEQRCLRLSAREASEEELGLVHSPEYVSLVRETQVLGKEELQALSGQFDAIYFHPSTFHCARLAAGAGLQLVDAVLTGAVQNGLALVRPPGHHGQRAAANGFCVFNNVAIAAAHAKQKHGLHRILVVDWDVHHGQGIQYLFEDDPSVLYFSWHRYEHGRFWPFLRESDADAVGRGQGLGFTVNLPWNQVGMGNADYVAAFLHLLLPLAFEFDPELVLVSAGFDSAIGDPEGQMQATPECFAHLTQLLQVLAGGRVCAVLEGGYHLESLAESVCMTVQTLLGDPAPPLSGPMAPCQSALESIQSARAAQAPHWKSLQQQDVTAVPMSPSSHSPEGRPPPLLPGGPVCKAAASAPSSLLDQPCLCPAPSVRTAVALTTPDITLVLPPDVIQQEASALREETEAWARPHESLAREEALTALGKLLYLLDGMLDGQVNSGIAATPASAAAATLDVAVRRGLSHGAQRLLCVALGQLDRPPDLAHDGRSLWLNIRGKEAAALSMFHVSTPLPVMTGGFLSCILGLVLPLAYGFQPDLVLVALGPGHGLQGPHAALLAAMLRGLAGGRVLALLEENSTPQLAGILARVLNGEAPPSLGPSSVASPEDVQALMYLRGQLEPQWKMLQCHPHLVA
Experimental: as §1

HDAC11 = biological target: T7, HDAC11 (Homo sapiens, UniProt Q96DB2); assay: HDACs enzymatic assay HDAC11; type: biochemical; details: Class IV
T7 construct: purchased BPS BIOSCIENCE Inc 50011
T7 sequence (Q96DB2 whole entry): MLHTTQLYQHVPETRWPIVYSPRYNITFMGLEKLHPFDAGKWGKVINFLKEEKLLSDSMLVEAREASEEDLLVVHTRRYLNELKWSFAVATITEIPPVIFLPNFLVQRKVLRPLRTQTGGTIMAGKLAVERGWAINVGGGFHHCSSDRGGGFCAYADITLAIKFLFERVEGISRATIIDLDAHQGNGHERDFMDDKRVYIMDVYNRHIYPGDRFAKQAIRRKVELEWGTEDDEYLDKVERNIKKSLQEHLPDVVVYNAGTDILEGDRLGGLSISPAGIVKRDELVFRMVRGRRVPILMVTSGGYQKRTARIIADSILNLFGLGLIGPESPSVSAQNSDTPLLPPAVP
Experimental: as §1

MDA-MB-231 = assay: CCK-8 antiproliferation assay; type: cell-based, human
Experimental: Cell lines purchased from the Cell Bank of Type Culture Collection of the Chinese Academy of Sciences (Shanghai, China) were passaged after resuscitation. […] The third to tenth passages of cells were used for experiments. […] After incubation, 20 µL CCK‐8 solution (MeilunBio) was added. Two hours later, absorption was measured by a Varioskan plate at 450 nm. Inhibition curves and IC50 values were simulated and calculated using the log(inhibitor) versus response (three parameters) mode via GraphPad Prism software.

[1] = In vitro metabolic assay, mouse liver microsomes; type: in vitro ADME
Experimental: Compounds were prepared in a working solution of 2 mg/mL with methanol. […]; Research Institute for Liver Disease (Shanghai) Co., Ltd) were mixed with NADPH (the final concentration is 4 mM), MgCl2 (the final concentration is 6 mM), and shaken at 37°C for 5 min. Then, compound solutions were added to the system and incubated for 0, 10, 20, 30, 60, 90, and 120 min at 37°C under shaking conditions. The mixture was quenched with cold acetonitrile and analyzed with a Shimadzu LC‐20AT system and a C18‐silica column (Thermo; 4.6 × 250 mm, 5 µm).

[2] = In vivo pharmacokinetic study; details: Sprague-Dawley, rat, plasma, male SD rats
Experimental: The compound was prepared in a 1 mg/mL working solution using DMSO/solutol/saline. SD rats (6–8 weeks old, 180–200 g, male) were purchased from Beijing HFK Bioscience Co., Ltd. (Beijing, China) and fed in accordance with the guidelines for the care and use of laboratory animals of the ethical committee of Shandong University. The doses were 2.5 mg/kg (i.v.) and 10 mg/kg (i.g.), with three animals per treatment group. Blood samples were collected from the jugular vein at different time points using heparin sodium anticoagulation tubes. After anesthetizing rats with ether, blood samples were placed in an ice water mixture for 15 min, then centrifuged at 3000×g for 3 min to separate the plasma, and stored at −20°C. The LC–MS/MS was used to detect the concentration of the analyte at each time point, and the pharmacokinetic parameters were calculated using WinNolin8.2 software.

MDA-MB-231 cells [3] = assay: Immunofluorescence of ac-H3; type: cell-based, human; details: 1 µM, 24 h
Experimental: Cells (10^5 cells per plate) were seeded in confocal dishes and incubated with drugs or DMSO (equal volume to experimental groups) for 24 h. The medium was removed, and cells were fixed with 4% polyoxymethylene solution for 30 min. The cells were treated with 0.2% Triton X‐100 for 10 min and 1% BSA for 1 h at room temperature. After that, cells were washed twice with TBST and incubated with anti‐H3 antibody (Cell Signal Technology; #13998) at 4°C overnight. When incubation finished, cells were washed five times with TBST and Cy3‐labeled goat anti‐rabbit IgG (Beyotime; #A0516) and DAPI solution (Solarbio) were added. After 1 h incubation and washing five times with TBST, cells were captured with Leica TCS SP8 super‐resolution laser scanning confocal microscope. The colocalization of ac‐H3 and DAPI was analyzed with ImageJ.

MDA-MB-231 cells [4] = assay: GreenNuc assay for caspase-3 activation; type: cell-based, human; details: MDA-MB-231, 24 h
Experimental: Caspase‐3 activation was detected with the GreenNuc caspase‐3 assay kit for live cells (Beyotime Inc). Cells (10^5 cells per well) were seeded in black 96‐well plates and treated with different concentrations of compounds. After 24 h, the medium was discarded, and cells were treated with GreenNuc caspase‐3 substrate at room temperature for 30 min. Fluorescence intensity was measured using a Varioskan plate reader at 485/515 nm, and the final activation folds were calculated.

MC38 cells = assay: PD-L1 expression in MC38 cells; type: cell-based; details: 24 h

T1 sequence (Q13547 whole entry): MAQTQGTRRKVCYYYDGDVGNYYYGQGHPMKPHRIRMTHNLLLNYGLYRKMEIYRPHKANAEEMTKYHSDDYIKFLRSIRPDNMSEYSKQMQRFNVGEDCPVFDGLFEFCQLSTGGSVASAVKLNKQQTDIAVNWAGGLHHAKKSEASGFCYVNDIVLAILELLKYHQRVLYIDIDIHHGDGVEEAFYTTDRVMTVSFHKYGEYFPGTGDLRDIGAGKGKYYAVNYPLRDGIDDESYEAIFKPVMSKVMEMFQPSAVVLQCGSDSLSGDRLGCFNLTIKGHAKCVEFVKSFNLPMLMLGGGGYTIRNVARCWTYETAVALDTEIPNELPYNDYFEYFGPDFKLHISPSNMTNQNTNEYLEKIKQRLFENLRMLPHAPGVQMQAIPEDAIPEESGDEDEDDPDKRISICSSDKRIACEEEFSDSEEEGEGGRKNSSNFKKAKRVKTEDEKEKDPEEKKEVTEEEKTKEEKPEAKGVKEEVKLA

O=C(CCCCCCNC(=O)c1cc(OCCc2ccccc2)c2ccccc2n1)NO [SDFZ-8]
IC50 (HDAC1; Class I, mean ± SD of three): 0.4 ± 0.1 nM | HDAC1 potency superior to SAHA (HDAC1; versus SAHA): 92 fold | IC50 (HDAC3/NCOR1 complex): 300 ± 100 nM | IC50 (HDAC4): > 10000 nM | IC50 (HDAC5): > 10000 nM | IC50 (HDAC9): > 10000 nM | IC50 (HDAC6): 3.1 ± 0.5 nM | IC50 (HDAC10): > 10000 nM | IC50 (HDAC11): > 10000 nM | IC50 (MDA-MB-231; Homo sapiens, MDA-MB-231, 48 h treatment, CCK-8): 470 ± 80 nM | antiproliferation activity better than SAHA (MDA-MB-231; MDA-MB-231 cells, versus SAHA): threefold | half-life ([1]; mouse liver microsomes, read-out: half-life T 1/2 in mouse liver microsomes): 12.3 min | microsomal CLint ([1]; mouse, microsomes): 56.3 µL/min/mg | AUC(0-inf) ([2]; iv, i.v. 2.5 mg/kg): 3120 ± 242 ng·h/mL | AUC(0-t) ([2]; iv, i.v. 2.5 mg/kg): 2730 ± 260 ng·h/mL | Cmax ([2]; iv, i.v. 2.5 mg/kg): 1750 ± 498 ng/mL | Tmax ([2]; iv, i.v. 2.5 mg/kg): 4.8 ± 0.6 min | half-life ([2]; iv, i.v. 2.5 mg/kg): 137 ± 74.4 min | bioavailability ([2]; oral, i.g. 10 mg/kg vs i.v. 2.5 mg/kg, read-out: F% (oral bioavailability)): 26.1% | AUC(0-inf) ([2]; po, i.g. 10 mg/kg): 3260 ± 663 ng·h/mL | AUC(0-t) ([2]; po, i.g. 10 mg/kg): 3080 ± 206 ng·h/mL | Cmax ([2]; po, i.g. 10 mg/kg): 659 ± 63.1 ng/mL | Tmax ([2]; po, i.g. 10 mg/kg): 19.8 ± 8.4 min | half-life ([2]; po, i.g. 10 mg/kg): 344 ± 90.6 min | immunofluorescence intensities of ac-H3 (MDA-MB-231 cells [3]): notably stronger than those of cells treated with SAHA | caspase-3 activation (MDA-MB-231 cells [4]): significantly higher than that observed for SAHA | expression level of PD-L1 (MC38 cells): increased
